# Measurements published in US20230365592A1 (Agios Pharmaceuticals, Inc., priority 2022, published 2023).
# Target: T1, human PAH with the R408W mutation (Homo sapiens, UniProt P00439, R408W)
# T1 construct: expressed in transfected cells
# T1 sequence (P00439 1-452 R408W): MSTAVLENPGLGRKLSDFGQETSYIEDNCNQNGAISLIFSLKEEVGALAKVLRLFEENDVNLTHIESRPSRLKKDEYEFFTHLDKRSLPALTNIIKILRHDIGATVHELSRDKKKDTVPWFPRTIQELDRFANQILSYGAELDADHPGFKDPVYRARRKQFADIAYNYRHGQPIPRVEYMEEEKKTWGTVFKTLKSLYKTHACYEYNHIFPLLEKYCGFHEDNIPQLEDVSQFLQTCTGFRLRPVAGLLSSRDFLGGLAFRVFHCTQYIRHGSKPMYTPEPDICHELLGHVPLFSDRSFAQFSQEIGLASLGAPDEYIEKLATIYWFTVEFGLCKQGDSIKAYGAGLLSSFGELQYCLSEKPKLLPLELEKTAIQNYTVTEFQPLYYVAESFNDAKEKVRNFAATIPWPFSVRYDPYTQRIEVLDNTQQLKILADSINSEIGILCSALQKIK
# Assay: Cell Based Phenylalanine Flux Assay;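 note: after compound treatment, cells received sepiapterin plus isotope-labelled Phenylalanine for 4 hours, then labelled Tyrosine in the medium was quantified, 10-point 2-fold dilution series run in duplicate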
# Conditions: A375 cells expressing R408W PAH; 24 hrs with compound, then 20 µM sepiapterin and 800 µM 13C9,15N-Phenylalanine for 4 hours; 13C-Tyrosine by LC-MS; average where tested multiple times; read-out: AC50
row,Compound,AC50 [nM]
1,"COc1cccn2nc([C@@H]3c4nc[nH]c4CCN3c3nnc(C)o3)cc12 (single isomer, unassigned)",1000 to 5000
2,"Cc1nnc(N2CCc3[nH]cnc3[C@H]2c2cc3c(F)cccn3n2)o1 (single isomer, unassigned)",1000 to 5000
3,c1cc(C2CC2)c2cc(C3c4nc[nH]c4CCN3c3nnc(-c4ccncn4)o3)nn2c1 (stereo not drawn),> 5000
4,CC(C)(O)c1ncc(C(=O)N2CCc3[nH]cnc3C2c2cc3cccc(C(F)(F)F)n3n2)o1 (stereo not drawn),1000 to 5000
5,FC(F)(F)c1cccn2nc(C3c4nc[nH]c4CCN3c3nnc(N4CCOCC4)o3)cc12 (stereo not drawn),> 5000
6,O=C(c1cnc(-c2ncccn2)o1)N1CCc2[nH]cnc2C1c1cc2c(F)cccn2n1 (stereo not drawn),> 5000
7,FC1(F)CC(c2nnc(N3CCc4[nH]cnc4C3c3cc4c(C(F)(F)F)cccn4n3)o2)C1 (stereo not drawn),1000 to 5000
8,O=C(c1ocnc1C(F)F)N1CCc2[nH]cnc2C1c1cc2cc(C(F)(F)F)ccn2n1 (stereo not drawn),1000 to 5000
9,"c1ccn2nc([C@@H]3c4nc[nH]c4CCN3c3nnc(N4CCOCC4)o3)cc2c1 (single isomer, unassigned)",> 5000
10,Fc1ncccc1-c1nnc(N2CCc3[nH]cnc3C2c2cc3ccccn3n2)o1 (stereo not drawn),> 5000
11,O=C(c1cnc(-c2ccccn2)o1)N1CCc2[nH]cnc2C1c1cc2ccccn2n1 (stereo not drawn),1000 to 5000

# Same assay, conditions: A375 cells expressing human PAH R408W; 24 hrs compound incubation; 13C-Tyrosine by LC-MS; average where tested multiple times; read-out: AC50
row,Compound,AC50 [nM]
1,"Cc1cccn2nc([C@@H]3c4nc[nH]c4CCN3c3nnc(C(F)(F)F)o3)cc12 [Example 1809, (S)-2-(4-(4-methylpyrazolo[1,5-a]pyridin-2-yl)-6,7-dihydro-1H-imidazo[4,5-c]pyridin-5(4H)-yl)-5-(trifluoromethyl)-1,3,4-oxadiazole]",< 500
2,"Fc1cccn2nc([C@@H]3c4nc[nH]c4CCN3c3nnc(C4CC4)o3)cc12 [Example 2433, (S)-2-cyclopropyl-5-(4-(4-fluoropyrazolo[1,5-a]pyridin-2-yl)-6,7-dihydro-1H-imidazo[4,5-c]pyridin-5(4H)-yl)-1,3,4-oxadiazole]",1000 to 5000
3,"O=C(c1ocnc1C1CC1)N1CCc2[nH]cnc2[C@@H]1c1cc2cccc(C(F)F)n2n1 [Example 2113, (R)-(4-cyclopropyloxazol-5-yl)(4-(7-(difluoromethyl)pyrazolo[1,5-a]pyridin-2-yl)-1,4,6,7-tetrahydro-5H-imidazo[4,5-c]pyridin-5-yl)methanone]",> 5000
4,"Fc1cccn2nc([C@H]3c4nc[nH]c4CCN3c3ccccn3)cc12 [Example 1976, (R)-4-(4-fluoropyrazolo[1,5-a]pyridin-2-yl)-5-(pyridin-2-yl)-4,5,6,7-tetrahydro-1H-imidazo[4,5-c]pyridine]",> 5000
5,"Clc1cccc2cc([C@H]3c4nc[nH]c4CCN3c3ncccn3)nn12 [Example 2455, (R)-4-(7-chloropyrazolo[1,5-a]pyridin-2-yl)-5-(pyrimidin-2-yl)-4,5,6,7-tetrahydro-1H-imidazo[4,5-c]pyridine]",1000 to 5000
6,"FC(F)(F)c1cccc2cc([C@@H]3c4nc[nH]c4CCN3c3nnc(-c4ccccn4)o3)nn12 [Example 2440, (S)-2-(pyridin-2-yl)-5-(4-(7-(trifluoromethyl)pyrazolo[1,5-a]pyridin-2-yl)-6,7-dihydro-1H-imidazo[4,5-c]pyridin-5(4H)-yl)-1,3,4-oxadiazole]",1000 to 5000
7,"Clc1cccn2nc([C@@H]3c4nc[nH]c4CCN3c3nnc(C4CCC4)o3)cc12 [Example 1831, (S)-2-(4-(4-chloropyrazolo[1,5-a]pyridin-2-yl)-6,7-dihydro-1H-imidazo[4,5-c]pyridin-5(4H)-yl)-5-cyclobutyl-1,3,4-oxadiazole]",500 to 1000
8,"Cc1cccnc1-c1nnc(N2CCc3[nH]cnc3[C@H]2c2cc3c(C(C)C)cccn3n2)o1 [Example 2285, (S)-2-(4-(4-isopropylpyrazolo[1,5-a]pyridin-2-yl)-1,4,6,7-tetrahydro-5H-imidazo[4,5-c]pyridin-5-yl)-5-(3-methylpyridin-2-yl)-1,3,4-oxadiazole]",< 500

# Same assay, conditions: A375 cells expressing human R408W PAH; 24 hrs compound incubation; 13C-Tyrosine by LC-MS; average where tested multiple times; read-out: AC50
row,Compound,AC50 [nM]
1,"Cc1ccc2cc([C@H]3c4nc[nH]c4CCN3C(=O)c3nnc(-c4ccn(C)n4)o3)nn2c1 [Example 815, (R)-(5-(1-methyl-1H-pyrazol-3-yl)-1,3,4-oxadiazol-2-yl)(4-(6-methylpyrazolo[1,5-a]pyridin-2-yl)-6,7-dihydro-1H-imidazo[4,5-c]pyridin-5(4H)-yl)methanone]",> 5000
2,"Cn1nc(C(F)F)nc1C(=O)N1CCc2[nH]cnc2[C@H]1c1cc2ccc(C(F)(F)F)cn2n1 [Example 1126, (S)-(3-(difluoromethyl)-1-methyl-1H-1,2,4-triazol-5-yl)(4-(6-(trifluoromethyl)pyrazolo[1,5-a]pyridin-2-yl)-6,7-dihydro-1H-imidazo[4,5-c]pyridin-5(4H)-yl)methanone]",< 500
3,"Cc1ccc2cc([C@@H]3c4nc[nH]c4CCN3C(=O)c3nnc(-c4ccccn4)o3)nn2c1 [Example 812, (S)-(4-(6-methylpyrazolo[1,5-a]pyridin-2-yl)-6,7-dihydro-1H-imidazo[4,5-c]pyridin-5(4H)-yl)(5-(pyridin-2-yl)-1,3,4-oxadiazol-2-yl)methanone]",500 to 1000
4,"O=C(c1nnc(-c2ccn(C(F)F)n2)o1)N1CCc2[nH]cnc2[C@@H]1c1cc2cccc(C(F)(F)F)n2n1 [Example 1037, (R)-(5-(1-(difluoromethyl)-1H-pyrazol-3-yl)-1,3,4-oxadiazol-2-yl)(4-(7-(trifluoromethyl)pyrazolo[1,5-a]pyridin-2-yl)-6,7-dihydro-1H-imidazo[4,5-c]pyridin-5(4H)-yl)methanone]",> 5000
5,"O=C(c1ocnc1C(F)F)N1CCc2[nH]cnc2[C@H]1c1cc2ccccn2n1 [Example 630, (S)-(4-(difluoromethyl)oxazol-5-yl)(4-(pyrazolo[1,5-a]pyridin-2-yl)-6,7-dihydro-1H-imidazo[4,5-c]pyridin-5(4H)-yl)methanone]",< 500
6,"Clc1cccn2nc([C@@H]3c4nc[nH]c4CCN3c3nnc(C4CC4)o3)cc12 [Example 1455, (S)-2-(4-(4-chloropyrazolo[1,5-a]pyridin-2-yl)-1,4,6,7-tetrahydro-5H-imidazo[4,5-c]pyridin-5-yl)-5-cyclopropyl-1,3,4-oxadiazole]",< 500
7,"CC1(c2nnc(C(=O)N3CCc4[nH]cnc4[C@@H]3c3cc4c(C(F)(F)F)cccn4n3)o2)CC1 [Example 1324, (R)-(5-(1-methylcyclopropyl)-1,3,4-oxadiazol-2-yl)(4-(4-(trifluoromethyl)pyrazolo[1,5-a]pyridin-2-yl)-6,7-dihydro-1H-imidazo[4,5-c]pyridin-5(4H)-yl)methanone]",1000 to 5000
8,"Cn1ccc(-c2nnc(C(=O)N3CCc4[nH]cnc4[C@@H]3c3cc4ccccn4n3)o2)n1 [Example 659, (R)-(5-(1-methyl-1H-pyrazol-3-yl)-1,3,4-oxadiazol-2-yl)(4-(pyrazolo[1,5-a]pyridin-2-yl)-6,7-dihydro-1H-imidazo[4,5-c]pyridin-5(4H)-yl)methanone]",1000 to 5000
9,"Cc1cccc2cc([C@@H]3c4nc[nH]c4CCN3C(=O)c3cnn4cc(CN(C)C)ccc34)nn12 [Example 1690, (S)-(6-((dimethylamino)methyl)pyrazolo[1,5-a]pyridin-3-yl)(4-(7-methylpyrazolo[1,5-a]pyridin-2-yl)-6,7-dihydro-1H-imidazo[4,5-c]pyridin-5(4H)-yl)methanone]",500 to 1000
10,"O=C(c1nnc(-c2ccn(C(F)F)n2)o1)N1CCc2[nH]cnc2[C@@H]1c1cc2c(Cl)cccn2n1 [Example 1119, (R)-(4-(4-chloropyrazolo[1,5-a]pyridin-2-yl)-6,7-dihydro-1H-imidazo[4,5-c]pyridin-5(4H)-yl)(5-(1-(difluoromethyl)-1H-pyrazol-3-yl)-1,3,4-oxadiazol-2-yl)methanone]",> 5000
11,"Cc1cccn2nc([C@H]3c4nc[nH]c4CCN3C(=O)c3oc(C(C)(C)F)nc3C(F)F)cc12 [Example 1217, (R)-(4-(difluoromethyl)-2-(2-fluoropropan-2-yl)oxazol-5-yl)(4-(4-methylpyrazolo[1,5-a]pyridin-2-yl)-6,7-dihydro-1H-imidazo[4,5-c]pyridin-5(4H)-yl)methanone]",< 500
12,"O=C(c1nnc(-c2ccccn2)o1)N1CCc2[nH]cnc2[C@H]1c1cc2cccc(F)n2n1 [Example 975, (S)-(4-(7-fluoropyrazolo[1,5-a]pyridin-2-yl)-6,7-dihydro-1H-imidazo[4,5-c]pyridin-5(4H)-yl)(5-(pyridin-2-yl)-1,3,4-oxadiazol-2-yl)methanone]",< 500
13,"Cc1cccc2cc([C@H]3c4nc[nH]c4CCN3C(=O)c3nnc(-c4cnn(C(F)(F)F)c4)o3)nn12 [Example 1447, (R)-(4-(7-methylpyrazolo[1,5-a]pyridin-2-yl)-6,7-dihydro-1H-imidazo[4,5-c]pyridin-5(4H)-yl)(5-(1-(trifluoromethyl)-1H-pyrazol-4-yl)-1,3,4-oxadiazol-2-yl)methanone]",> 5000
14,"O=C(c1cnn2cc(C3CC3)ccc12)N1CCc2[nH]cnc2[C@H]1c1cc2cccc(Cl)n2n1 [Example 1744, (S)-(4-(7-chloropyrazolo[1,5-a]pyridin-2-yl)-6,7-dihydro-1H-imidazo[4,5-c]pyridin-5(4H)-yl)(6-cyclopropylpyrazolo[1,5-a]pyridin-3-yl)methanone]",1000 to 5000
